# Assay results reported in patent publication US11161843B2, “Fused heterocyclic compound and composition containing same” (Sumitomo Chemical Company, Limited, priority 2017, dated 2021).
# Experiments:
# [1] = system: brown planthopper (Nilaparvata lugens); assay: Test Example 3: spray on rice seedling, brown planthopper larvae; format: in vivo; details: 500 ppm, spray 10 mL/seedling, 3rd instar larvae, counted after 6 days
# Protocol: The test compounds were made to a formulation according to the method described in the Formulation Example 5, and thereto was added water containing 0.03 v/v % of a spreader to prepare a diluted solution containing a prescribed concentration of the test compound.
# Rice (Oryza sativa) seedling (on the developmental stage of the second true leaf) was planted in a container, and the diluted solutions were sprayed into the seedling in a ratio of 10 mL/seedling. Thereafter, 20 of 3rd instar larvae of brown planthopper (Nilaparvata lugens) were released onto the rice leaves. After 6 days, the number of the surviving insects was examined, and the mortality was calculated by the following equation. Mortality (%)={1−the number of the surviving insects/20}×100
# cotton aphid = assay: Test Example 2: irrigation into plant foot of cucumber seedling, cotton aphid inoculated after 7 days; format: in vivo, Aphis gossypii; details: 1,000 ppm, 5 mL/seedling irrigated into plant foot, aphids inoculated after 7 days, counted after additional 6 days
# Protocol: The test compounds were made to a formulation according to the method described in the Formulation Example 5, and thereto was added water to prepare a diluted solution containing a prescribed concentration of the test compound. Cucumber seedling (on the developmental stage of the second true leaf) was planted in a container, and the diluted solutions in the ratio on 5 mL/seedling were irrigated into the plant foot. After 7 days, approximately 30 of cotton aphid (all stages of life) were inoculated onto the cucumber leaves. After additional 6 days, the number of the surviving insects was examined, and the controlling value was calculated by the following equation. Controlling value (%)={1−(Cb×Tai)/(Cai×Tb)}*100 wherein the symbols in the formula represent the following descriptions. Cb: Number of the test insects in untreated group; Cai: Number of the surviving insects at the time of the investigation in untreated group; Tb: Number of the test insects in treated group; Tai: Number of the surviving insects at the time of the investigation in treated group; Here the “untreated group” represents a group where a similar treatment procedure to that of the treated group except not using the test compound is done.
structure (smiles),measurement,setting,value
CCS(=O)(=O)c1ccc2nncn2c1-c1ccc(OCC(F)(F)C(F)(F)F)cn1 [compound 4],controlling value,[1],≥ 90%
same,controlling value,cotton aphid,≥ 90%
